Results from PubChem BioAssay AID328 (DTP/NCI, 2004).
“And” between values parts separate entries of the source, which are not always exact repeats. Equal values may be shown once. Toxic doses and inconclusive results are not listed.

System: BDF1 mice, P388 leukemia ip, median survival T/C
Assay: NCI In Vivo Anticancer Drug Screen. Data for tumor model P388 Leukemia (intraperitoneal) in B6D2F1 (BDF1) mice
Conditions: endpoint: median survival time, higher = longer survival
In short: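 Each value expresses how treatment altered survival: treated-mouse outcome over vehicle-mouse outcome, both groups bearing the transplanted tumour.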

[1] = dose: 50.0 mg/kg/injection, schedule: Q01DX009 (ip), vehicle: Klucel (hydroxypropylcellulose) (HPC)
[2] = dose: 12.5 mg/kg/injection, schedule: Q01DX009 (ip), vehicle: saline with Tween-80
[3] = dose: 25.0 mg/kg/injection, schedule: Q01DX009 (ip), vehicle: saline with Tween-80
[4] = dose: 50.0 mg/kg/injection, schedule: Q01DX009 (ip), vehicle: saline with Tween-80
[5] = dose: 100.0 mg/kg/injection, schedule: Q01DX009 (ip), vehicle: Klucel (hydroxypropylcellulose) (HPC)
[6] = dose: 200.0 mg/kg/injection, schedule: Q01DX009 (ip), vehicle: Klucel (hydroxypropylcellulose) (HPC)
[7] = dose: 400.0 mg/kg/injection, schedule: Q01DX009 (ip), vehicle: Klucel (hydroxypropylcellulose) (HPC)
[8] = dose: 100.0 mg/kg/injection, schedule: Q04DX003 (ip), vehicle: saline with Tween-80
[9] = dose: 200.0 mg/kg/injection, schedule: Q01DX009 (ip), vehicle: saline with Tween-80
[10] = dose: 200.0 mg/kg/injection, schedule: Q04DX003 (ip), vehicle: saline with Tween-80
[11] = dose: 400.0 mg/kg/injection, schedule: Q04DX003 (ip), vehicle: saline with Tween-80
[12] = dose: 50.0 mg/kg/injection, schedule: Q04DX003 (ip), vehicle: Klucel (hydroxypropylcellulose) (HPC)
[13] = dose: 200.0 mg/kg/injection, schedule: Q04DX003 (ip), vehicle: Klucel (hydroxypropylcellulose) (HPC)
[14] = dose: 100.0 mg/kg/injection, schedule: Q04DX003 (ip), vehicle: Klucel (hydroxypropylcellulose) (HPC)
[15] = dose: 100.0 mg/kg/injection, schedule: Q01DX009 (ip), vehicle: saline with Tween-80

O=C(CCN1CC1)OCCOC(=O)CCN1CC1
T/C (dose: 1.5 mg/kg/injection, schedule: Q01DX009 (ip), vehicle: saline with Tween-80): 112 % of control
T/C (dose: 16.0 mg/kg/injection, schedule: Q04DX003 (ip), vehicle: saline with Tween-80): 150 % of control
T/C (dose: 21.0 mg/kg/injection, schedule: Q04DX003 (ip), vehicle: saline with Tween-80): 163 % of control
T/C (dose: 33.0 mg/kg/injection, schedule: Q04DX003 (ip), vehicle: saline with Tween-80): 163 % of control
T/C (dose: 50.0 mg/kg/injection, schedule: Q04DX003 (ip), vehicle: saline with Tween-80): 195 % of control
T/C (dose: 75.0 mg/kg/injection, schedule: Q04DX003 (ip), vehicle: saline with Tween-80): 181 % of control

CC(C)C[C@H](O)C(=O)O
T/C (dose: 25.0 mg/kg/injection, schedule: Q01DX009 (ip), vehicle: saline): 95 % of control
T/C (dose: 44.0 mg/kg/injection, schedule: Q01DX009 (ip), vehicle: saline): 109 % of control
T/C (dose: 66.0 mg/kg/injection, schedule: Q01DX009 (ip), vehicle: saline): 109 % of control
T/C (dose: 100.0 mg/kg/injection, schedule: Q01DX009 (ip), vehicle: saline): 95 % of control and 120 % of control
T/C (dose: 150.0 mg/kg/injection, schedule: Q01DX009 (ip), vehicle: saline): 118 % of control
T/C (dose: 200.0 mg/kg/injection, schedule: Q01DX009 (ip), vehicle: saline): 95 % of control

CCC1=CC(C(O)CC(C)C)C(C)(Cc2ccc(CC)cn2)NC1c1ccccc1 (stereo not drawn)
T/C (dose: 25.0 mg/kg/injection, schedule: Q04DX002 (ip), vehicle: saline with Tween-80): 101 % of control
T/C (dose: 50.0 mg/kg/injection, schedule: Q04DX002 (ip), vehicle: saline with Tween-80): 106 % of control

CC(=O)NC1CCCN(O)C(=O)/C=C(/C)CCOC(=O)C(NC(C)=O)CCCN(O)C(=O)/C=C(/C)CCOC(=O)C(NC(C)=O)CCCN(O)C(=O)/C=C(/C)CCOC1=O.[Fe] (stereo not drawn)
T/C (dose: 12.5 mg/kg/injection, schedule: Q01DX009 (ip), vehicle: Klucel (hydroxypropylcellulose) (HPC)): 86 % of control
T/C (dose: 25.0 mg/kg/injection, schedule: Q01DX009 (ip), vehicle: Klucel (hydroxypropylcellulose) (HPC)): 92 % of control
T/C [1]: 99 % of control

ClC(CN1CCCCC1)C(Cl)c1ccccc1 (stereo not drawn)
T/C (dose: 50.0 mg/kg/injection, schedule: Q04DX003 (ip), vehicle: saline sonified): 108 % of control
T/C (dose: 100.0 mg/kg/injection, schedule: Q04DX003 (ip), vehicle: saline sonified): 112 % of control
T/C (dose: 200.0 mg/kg/injection, schedule: Q04DX003 (ip), vehicle: saline sonified): 104 % of control

Cc1ccc(NC(=O)OCCOc2ccc(-c3ccccc3)cc2)c([N+](=O)[O-])c1
T/C (dose: 12.5 mg/kg/injection, schedule: Q01DX009 (ip), vehicle: DMSO): 100 % of control
T/C (dose: 25.0 mg/kg/injection, schedule: Q01DX009 (ip), vehicle: DMSO): 119 % of control
T/C (dose: 50.0 mg/kg/injection, schedule: Q01DX009 (ip), vehicle: DMSO): 102 % of control

O=[N+]([O-])c1ccc(N/N=C(\c2ccccc2)c2ccsc2)c([N+](=O)[O-])c1
T/C (dose: 6.25 mg/kg/injection, schedule: Q01DX009 (ip), vehicle: saline with Tween-80): 103 % of control
T/C [2]: 100 % of control
T/C [3]: 96 % of control
T/C [4]: 92 % of control

CN(Nc1c([N+](=O)[O-])cc([N+](=O)[O-])cc1[N+](=O)[O-])c1ccc2ccccc2c1
T/C [5]: 120 % of control
T/C [6]: 105 % of control
T/C [7]: 110 % of control

COc1cccc2c1CCC1=C2CC=C2CC3(CCC21C)OCCO3 (stereo not drawn)
T/C (dose: 5.0 mg/kg/injection, schedule: Q04DX003 (sc), vehicle: steriod suspending solution): 109 % of control
T/C (dose: 10.0 mg/kg/injection, schedule: Q04DX003 (sc), vehicle: steriod suspending solution): 104 % of control
T/C (dose: 20.0 mg/kg/injection, schedule: Q04DX003 (sc), vehicle: steriod suspending solution): 118 % of control

Cc1ccccc1NC=O
T/C (dose: 90.0 mg/kg/injection, schedule: Q01DX009 (ip), vehicle: saline with Tween-80): 103 % of control
T/C [8]: 95 % of control
T/C (dose: 135.0 mg/kg/injection, schedule: Q01DX009 (ip), vehicle: saline with Tween-80): 107 % of control
T/C [9]: 99 % of control
T/C [10]: 104 % of control
T/C (dose: 300.0 mg/kg/injection, schedule: Q01DX009 (ip), vehicle: saline with Tween-80): 107 % of control
T/C (dose: 400.0 mg/kg/injection, schedule: Q01DX009 (ip), vehicle: saline with Tween-80): 120 % of control
T/C [11]: 116 % of control

CCCOP(=S)(N1CC1)N1CC1
T/C (dose: 25.0 mg/kg/injection, schedule: Q01DX009 (ip), vehicle: other): 100 % of control
T/C [12]: 116 % of control
T/C [5]: 100 % of control
T/C (dose: 100.0 mg/kg/injection, schedule: Q01DX009 (ip), vehicle: other): 150 % of control
T/C [13]: 183 % of control

O=S1(=O)C=Cc2ccccc21
T/C [1]: 92 % of control
T/C [5]: 100 % of control
T/C [14]: 100 % of control
T/C [6]: 107 % of control
T/C [13]: 95 % of control

CC(=O)Oc1ccc(C2C3=C(COC3=O)CC3=C2C(=O)OC3)cc1
T/C (dose: 100.0 mg/kg/injection, schedule: Q01DX007 (ip), vehicle: saline with Tween-80): 95 % of control
T/C [8]: 100 % of control
T/C (dose: 200.0 mg/kg/injection, schedule: Q01DX007 (ip), vehicle: saline with Tween-80): 90 % of control
T/C [10]: 110 % of control
T/C (dose: 400.0 mg/kg/injection, schedule: Q01DX007 (ip), vehicle: saline with Tween-80): 100 % of control
T/C [11]: 100 % of control

CCOC(=O)c1ccc(NCC(=N)N)cc1
T/C (dose: 37.5 mg/kg/injection, schedule: Q01DX001 (ip), vehicle: saline sonified): 100 % of control
T/C (dose: 75.0 mg/kg/injection, schedule: Q01DX001 (ip), vehicle: saline sonified): 100 % of control
T/C (dose: 150.0 mg/kg/injection, schedule: Q01DX001 (ip), vehicle: saline sonified): 100 % of control

CCCCCCCCCCCCCCCC(=O)N(c1ccc(NC(=O)Nc2ccc(N(C(=O)CCCCCCCCCCCCCCC)C(C)CCCN(CC)CC)cc2)cc1)C(C)CCCN(CC)CC (stereo not drawn)
T/C [2]: 94 % of control
T/C [3]: 87 % of control
T/C [4]: 97 % of control
T/C [8]: 93 % of control
T/C [10]: 99 % of control
T/C [11]: 102 % of control

NC(=O)NO.NC(=O)NO.[Cl][Ni][Cl]
T/C (dose: 3.12 mg/kg/injection, schedule: Q01DX009 (ip), vehicle: saline): 92 % of control

c1ccc2c(c1)NC1(CCCCC1)S2
T/C [5]: 104 % of control
T/C [14]: 95 % of control
T/C [6]: 104 % of control
T/C [13]: 105 % of control
T/C [7]: 109 % of control
T/C (dose: 400.0 mg/kg/injection, schedule: Q04DX003 (ip), vehicle: Klucel (hydroxypropylcellulose) (HPC)): 105 % of control

CCOC(=O)C(F)C(Br)C(=O)OCC (stereo not drawn)
T/C [4]: 96 % of control and 101 % of control
T/C [15]: 116 % of control
T/C [9]: 154 % of control

O=C(O)C(c1ccccc1)C1CCCC1 (stereo not drawn)
T/C [4]: 100 % of control
T/C [15]: 95 % of control
T/C [9]: 109 % of control

CCCCCCCCCCCCCCCCN(C)CCO
T/C (dose: 50.0 mg/kg/injection, schedule: Q01DX009 (ip), vehicle: saline + alcohol): 97 % of control

CC(C)c1ccc(C(=O)C2CC2)cc1
T/C (dose: 25.0 mg/kg/injection, schedule: Q04DX003 (ip), vehicle: Klucel (hydroxypropylcellulose) (HPC)): 100 % of control
T/C [1]: 100 % of control
T/C [12]: 87 % of control
T/C [5]: 113 % of control
T/C [14]: 100 % of control
T/C [6]: 113 % of control
T/C [13]: 95 % of control

C=C(C)C(=O)OC1CC2=CC(CC3(C)OC3C3OC(=O)C(=C)C13)OC2=O (stereo not drawn)
T/C (dose: 4.5 mg/kg/injection, schedule: Q01DX009 (ip), vehicle: Klucel (hydroxypropylcellulose) (HPC)): 101 % of control
T/C (dose: 18.0 mg/kg/injection, schedule: Q01DX009 (ip), vehicle: Klucel (hydroxypropylcellulose) (HPC)): 106 % of control
T/C (dose: 36.0 mg/kg/injection, schedule: Q01DX009 (ip), vehicle: Klucel (hydroxypropylcellulose) (HPC)): 117 % of control

Cc1cc(C)c(CN)cc1C
T/C (dose: 5.0 mg/kg/injection, schedule: Q04DX003 (ip), vehicle: saline with Tween-80): 100 % of control
T/C (dose: 10.0 mg/kg/injection, schedule: Q04DX003 (ip), vehicle: saline with Tween-80): 100 % of control
T/C (dose: 20.0 mg/kg/injection, schedule: Q04DX003 (ip), vehicle: saline with Tween-80): 100 % of control
